Entries after “also recorded” stand apart in the source; their conditions may differ. Where two headings read alike, the source gives them in different places.
Experiments:
[1] = human, in vivo, po
Method: Additional oral administration of high dose QA was carried out after ingestion of 6 gm Quinmax™ in human volunteers at the University of Lund. The purpose of this study was to determine if significant metabolism of QA to hippuric acid occurred when QA was administered in the ammonia chelated form as Quinmax™, a 1:1.6 molar ratio of QA to ammonia ions.
A apparently healthy volunteer drank 6 gm Quinmax™ dissolved in 300 ml water over a 15 min period, and then about 40 ml of peripheral blood (4-red topped vacutainers) were allowed to clot at room temperature to prepare serum samples by centrifugation. The serum sampling points were 0.7 hr, 1.7 hr, 2.7 hr, 3.7 hr, 10.5 hr 12.5 hr, 22 hr, 28 hr and 44 hr. 30 ml serum samples were precipitated with 50% ethanol, taken to dryness under a stream of air, and redissolved in 1 ml of methanol for simultaneous HPLC analysis of quinic acid and hippuric acid.
First to determine when peak serum concentrations of QA occurred and how long they would remain detectable.

[2] = tested on: human HL-60 leukemic cells; test: In vitro growth inhibition of cultured HL-60 cells by quinic acid salts/chelates (MTT); format: cell-based; details: 72 hr, concentrations up to 3000 μg/ml
From the text: FIG. 1 illustrates in vitro growth inhibition expressed as IC50 values (i.e. the dose that inhibits 50% of growth) induced by various quinic acid salts, chelates or salts/chelates (molecular structure at saturation undetermined) in cultured HL-60 cells. QA-H+=free quinic acid (H+), QA-NH4.+=quinic acid ammonium chelate, QA-Na+=quinic acid sodium salt, QA-K+=quinic acid potaasium chelate, QA-Zn++=quinic acid zinc salt/chelate, QA-Li+=quinic acid lithium salt/chelate, Ca++=quinic acid calcium chelate, quinic acid histidine salt/chaelate=QA-histidine, quinic acid lysine salt/chelate=QA-lysine, and C-Med-100=non pH adjusted water extract.
For the study involving quinic acid salts and chelates (FIG. 1) quinic acid was purchased from Sigma (>99%). QA salts/chelates were synthesized by neutralization to pH=7.5 with the appropriate base, i.e., NH4OH, NaOH, Ca(OH)2, Zn(OH)2, LiOH, KOH, lysine or histidine. Serial dilutions of test compounds were added to human HL-60 leukemic cells (0.05×10^6 cells/ml) in 96-well, flat bottomed microtiter plates to give final concentrations in the cultures up to 3000 μg/ml. The plates were incubated for 72 hr at 37 C, pulsed with 20 μl MTT (5 mg/ml) for 3 hr, and the color estimated spectrophotometrically at 540 nm as described previously. (Schweitzer, C M et al. Spectrophotometric determination of clonogenic capacity of leukemic cells in semisolid microtiter culture systems. Experimental Hematology 21: 573-578, 1993). IC50 values were calculated and compared based on the live/dead ratio of cells.

DNA repair = DNA repair enhancement in vivo
From the text: The discovery began in trying to explain the biological activity of a hot water extract of Cat's Claw bark, Uncaria tomentosa, called C-Med-100. […] After this initial biological characterization, the applicant has set forth to identify the natural product behind DNA repair enhancement as a potential anti-aging therapy. A series of chemical studies have led scientists to first identify carboxy alkyl esters (CAEs) as the bioactives and then it was followed by quinic acid esters (QAEs) being identified as the only bioactive CAEs in cat's claw water extracts. […] bioactive both in vitro and in vivo. […] However, quinic acid is present in water extracts of Cat's Claw as […] in effect in a pro-metabolite form since the QAEs would be hydrolyzed to quinic acid in the gastrointestinal tract.

[3] = rat, oral; Sheng et al 2005; cited from earlier work
[4] = tested on: C57BL/6 mouse spleen cells; test: Growth arrest of spleen cells cultured with mitogen Con A (thymidine incorporation); format: cell-based; details: 48 hours
Method: Growth of spleen cells was evaluated in response to the mitogen Con A (2.5 μg/ml) after 48 hours by radioactive thymidine incorporation. Comparison is made at doses in mg/ml for inhibiting 25%, 50% and 90% of the growth of spleen cells; i.e. IC dose values.
Growth of spleen cells was evaluated in response to the mitogen Con A (2.5 μg/ml) after 48 hours by radioactive thymidine incorporation. Comparison is made at concentrations in mg/ml for inhibiting 25%, 50% and 90% of the growth of spleen cells; IC values.
Comparison is made at doses in mg/ml for inhibiting 25%, 50% and 90% of the growth of spleen cells; IC values.
For the study of Citrimix as the calcium/potassium alpha hydroxy citric acid chelate compared to the ammonia chelate of hydroxy citric acid (Nu-Citrimix), inhibition growth of primary spleen cells after in vitro exposure in microtiter cell culture for 48 hours in the presence of mitogen (Con A, 2 ug/ml), was the bioassay procedure used (Akesson C., Lindgren H., Pero R. W., Leanderson T., Ivars F., “An extract of Uncaria Tomentosa inhibiting cell division and NF-kB activity without inducing cell death,” International Immunopharm 3:1889-1900, 2003).

NF-kB = NF-kB inhibition in Jurkat T cells; format: cell-based, human; details: FIG. 4
Method: FIG. 4 illustrates the evaluation of NF-kB in Jurkat T cells as previously described in detail after treatment with quinic acid (H+), quinic aid ammonium chelate neutralized to pH=7.5 or the equivalent amount of […] (NH4Cl).
Independent inhibition of NF-kB by either QA or NH4+ ions. Human Jurkat T cells were incubated together with either QA, QA-NH4+ or NH4Cl, and the degree of inhibition of NF-kB evaluated as described elsewhere. See, FIG. 4. Parra E, et al., 1997. Mol Cell Biol 17:1324-23; Akesson, C., et al., Int. Immunopharmacol., 5(1):219 (2005).

[5] = Safety, toxicity and efficacy (Table 2), human; format: in vivo; details: oral, highest dose tested 70 mg/kg, University of Lund human volunteer n = 2
From the text: Quinmax™ is substantially pure quinic acid neutralized with aqueous ammonia to pH=7.5. As a result, in water ammonium ions are also generated which in themselves have potent biological functions. Ammonium ions, for example, stimulate protein synthesis in the GI tract, neutralize lysosomal vesicles thus preventing oxidative stress DNA damage, and inhibit NF-kB mediated inflammatory responses. These are examples of additional biological properties of Quinmax™, which is devoid of any added-on toxicity. […] Jacobsen, L B, Richardson, C L, Floss, H G. 1978. Shikimic acid and quinic acid are not mutagenic in the Ames assay. Lloydia 41(5): 450-452. Here the most important consideration is to compare the highest doses of quinic acid exposure to those shown to have efficacy in various animal models. It is quite apparent that quinic acid doses that far exceed the known efficacious doses of quinic acid have been used in the various animal model systems.
Here the most important consideration is to compare the highest doses of quinic acid exposure to those shown to have efficacy in various animal models. It is quite apparent that quinic acid doses that far exceed the known efficacious doses of quinic acid have been used in the various animal model systems. […] Moreover, Quinmax™ is quinic acid neutralized with aqueous ammonia to pH=7.5. […]

[6] = tested on: Rat white blood cells (WBC); test: DNA damage recovery in the rat after DXR treatment, white blood cell count; format: in vivo; details: for Prevention of cell death after exposure to DNA damaging agent DXR: DXR treatment, WBC after 15 days
From the text: White blood cell (WBC) growth after 15 days estimated as 10^12WBC/liter blood. DXR=doxorubicin DNA damaging agent.
(§1) Rat white blood cells (WBC) or mouse spleen WBC were increased in vivo after quinic acid oral administration either by gavage or in drinking water from 7.2 to >8.2×10^6 cells/ml or 6.2 to 8.3×10^9 cells/ml, respectively. […] If extrapolated into a lifespan which is logically reasonable, then living to an average age of 90 years would be increased to 112 years by ingesting optimal amounts of quinic acid during one's lifetime.

mouse spleen WBC = test: Mouse spleen WBC after quinic acid oral administration; format: in vivo; details: oral (gavage or drinking water), increased from 6.2
From the text: as §1

[7] = mouse, drink water; Akesson et al 2005; cited from earlier work
[8] = 2700 μg/ml; Jacobsen et al 1978; cited from earlier work
[9] = lower animals, oral, highest dose tested 300-600 mg/kg; Adamson et al 1970; cited from earlier work
[10] = human, oral, highest dose tested 90 mg/kg; Beer et al 1951, Adamson et al 1970; cited from earlier work

SMILES | DNA repair enhancing activity (comparison in words) (DNA repair) | Efficacy (efficacious dose) [3] | IC25 growth of spleen cells (comparison in words) [4] | IC50 growth of spleen cells (comparison in words) [4] | IC90 growth of spleen cells (comparison in words) [4] | NF-kB inhibition (comparison in words) (NF-kB) | Prevention of cell death after exposure to DNA damaging agent DXR ([6]; rat) | other results
N.O=C(O)[C@]1(O)C[C@@H](O)[C@@H](O)[C@H](O)C1 [Quinmax™, quinic acid ammonium chelate] | as efficacious as Cat's Claw water extracts such as C-Med-100 | ≦200 mg/kg | dramatically lowering the IC25, IC50 and IC90 values compared to quinic acid (H+) | dramatically lowering the IC25, IC50 and IC90 values compared to quinic acid (H+) | dramatically lowering the IC25, IC50 and IC90 values compared to quinic acid (H+) | enhanced NF-kB inhibition over quinic acid (H+) | prevent cell death | Time during which hippuric acid could be measured in serum [1]: 3.7 to 12.5 h; Time of peak serum concentrations of QA [1]: around 10.5 hr; IC50 growth inhibition of HL-60 cells (comparison in words) ([2]; FIG. 1, listed as QA-NH4+): more effective than known salts such as QA-Na+; IC50 growth inhibition of HL-60 cells (comparison in words) ([2]; FIG. 1, listed as QA-NH4+ chelate): much more biologically effective than any other salt or chelate; also recorded: as efficacious as the cat's claw water extract (C-Med-100); Toxicity [5]: None
O=C([O-])C1(O)CC(O)C(O)C(O)C1.O=C([O-])C1(O)CC(O)C(O)C(O)C1.[Ca+2] (stereo not drawn) [QA-Ca++, quinic acid calcium chelate] |  |  |  |  |  |  |  | IC50 growth inhibition of HL-60 cells (comparison in words) ([2]; FIG. 1): more effective than known salts such as QA-Na+
O=C(O)[C@]1(O)C[C@@H](O)[C@@H](O)[C@H](O)C1 [Quinic acid] | as much DNA repair enhancing activity in vivo as did the QAEs | ≦200 mg/kg |  |  |  |  | prevent cell death | Mouse spleen WBC after oral administration (mouse spleen WBC): 8.3 ×10^9 cells/ml; Efficacy (efficacious dose) [7]: 250 mg/kg; Toxicity evaluated by mutagenicity in the Ames Assay [8]: did not demonstrate any toxicity; Toxicity [9]: None; Toxicity [10]: None; Increase in the protection of the DNA from becoming damaged and killing the cells ([6]; calculated from rat WBC and mouse spleen WBC increases): 13-25%; Rat white blood cells (WBC) after oral administration ([6]; rat, oral (gavage or drinking water), increased from 7.2): > 8.2 ×10^6 cells/ml
Cl.N [NH4Cl, reference compound] |  |  | comparable to the quinic acid ammonium chelate | comparable to the quinic acid ammonium chelate | comparable to the quinic acid ammonium chelate | as effective as the quinic acid NH4+ chelate |  | 

— patent US20090275656A1, “Medicinal Compositions of Salts, Chelates and/or Free Acids of Alpha Hydroxyl Organic Acids and Related Processes and Methods” (priority 2005, published 2009)
